What all share (assay): Antibacterial activity, microbroth dilution method (MIC)
Background: Broth dilution looks for growth in wells or tubes with falling amounts of substance.

The subject of test [1] is super sensitive Gram-negative Escherichia coli (E. coli) BAS849. The test is classed as cell-based. As to conditions: Escherichia coli, read-out: MIC, E. coli BAS849. Summed up:
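In a microbroth dilution test, the minimum inhibitory concentration was defined as the lowest compound level preventing growth seen by eye, and was given in μg/mL.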

Test [2] relates to Gram-positive Staphylococcus aureus (S. aureus) 29213. Type of test: cell-based. The settings on record: Staphylococcus aureus, Gram-positive S. aureus 29213. Summed up: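 Microbroth dilution was used. MIC, in μg/mL, is the lowest drug concentration preventing macroscopically visible growth under the test conditions.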
The subject of test [3] is control Gram-negative E. coli 25922 strain. The test is classed as cell-based, Escherichia coli. As to conditions: Escherichia coli. Summed up: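 Growth inhibition by microbroth dilution. MIC = lowest μg/mL with no visible growth. Strain 25922 is the control Gram-negative; BAS849 is hypersensitive.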
Setting [4] is: super sensitive Gram-negative E. coli BAS849, microbroth dilution.

Experimental findings from patent US20150038438A1, “ANTIBACTERIAL COMPOUNDS AND METHODS FOR USE” (PTC THERAPEUTICS, INC., priority 2011, published 2015) are described below.

In brackets after ≈: the same amount, converted by molar mass. Where a name gives a salt, the structure may show the parent alone. Read-outs that look alike come from different tables or passages of the source. Where only a bound is given, the exact number is not on record here.

As for `CCNCCc1cc2cc3c(cc2n1C)CCCc1c-3[nH]c(=O)c(C(=O)O)c1O.O=C(O)C(F)(F)F` [Cpd 165, 10-(2-(ethylamino)ethyl)-4-hydroxy-9-methyl-2-oxo-1,2,5,6,7,9-hexahydropyrido[3′,2′:6,7]cyclohepta[1,2-f]indole-3-carboxylic acid trifluoroacetate], the MIC (usually the lowest concentration that inhibits growth of the organism) is less than 1 µg/mL in test [1], 12.5 to 150 µg/mL in test [2] and 1 to 3.5 µg/mL in test [3].
Taken in the same sequence, the figures for `CC1Cc2cc(N3C[C@@H]4[C@@H](N)[C@@H]4C3)ccc2-c2[nH]c(=O)c(C(=O)O)c(O)c21` (stereo partly drawn) [Cpd 110, 8-((cis,cis)-6-amino-3-azabicyclo[3.1.0]hexan-3-yl)-4-hydroxy-5-methyl-2-oxo-1,2,5,6-tetrahydrobenzo[h]quinoline-3-carboxylic acid trifluoroacetate] were 3.5 to 12.5 µg/mL, 12.5 to 150 µg/mL and 12.5 to 150 µg/mL.
Turning to `CNCc1cc2cc3c(cc2n1C)NCCCc1c-3[nH]c(=O)c(C(=O)O)c1O.Cl` [Cpd 103, 4-hydroxy-10-methyl-11-((methylamino)methyl)-2-oxo-2,5,6,7,8,10-hexahydro-1H-pyrido[2′,3′:4,5]azocino[3,2-f]indole-3-carboxylic acid hydrochloride], the minimal inhibitory concentration (MIC) in test [1] (setting [4]) fell in the range of 1 to 3.5 µg/mL; in test [2], 12.5 to 150 µg/mL; in test [3], 12.5 to 150 µg/mL.
As for `Cl.Cn1c(CN2CCC2)cc2cc3c(cc21)CCCc1c-3[nH]c(=O)c(C(=O)O)c1O` [Cpd 24, 10-(azetidin-1-ylmethyl)-4-hydroxy-9-methyl-2-oxo-1,2,5,6,7,9-hexahydropyrido[3′,2′:6,7]cyclohepta[1,2-f]indole-3-carboxylic acid hydrochloride], the MIC in test [1] (setting [4]) is less than 1 µg/mL; in test [2], 3.5 to 12.5 µg/mL; in test [3], less than 1 µg/mL.
Take `CN(C)C1CCN(Cc2cc3cc4c(cc3n2C)CCCc2c-4[nH]c(=O)c(C(=O)O)c2O)C1.Cl.Cl` (stereo not drawn) [Cpd 47, 10-((3-(dimethylamino)pyrrolidin-1-yl)methyl)-4-hydroxy-9-methyl-2-oxo-1,2,5,6,7,9-hexahydropyrido[3′,2′:6,7]cyclohepta[1,2-f]indole-3-carboxylic acid dihydrochloride]: the minimum inhibitory concentration (MIC) is less than 1 µg/mL in test [1] (setting [4]), 3.5 to 12.5 µg/mL in test [2] and 3.5 to 12.5 µg/mL in test [3].
For `CC(CO)NCc1cc2cc3c(cc2n1C)CCCc1c-3[nH]c(=O)c(C(=O)O)c1O.Cl` (stereo not drawn) [Cpd 151, 4-hydroxy-10-(((1-hydroxypropan-2-yl)amino)methyl)-9-methyl-2-oxo-1,2,5,6,7,9-hexahydropyrido[3′,2′:6,7]cyclohepta[1,2-f]indole-3-carboxylic acid hydrochloride], the MIC in test [1] (setting [4]) lay within 3.5 to 12.5 µg/mL; in test [2], 12.5 to 150 µg/mL; in test [3], 1 to 3.5 µg/mL.
For `Cl.O=C(O)c1c(O)c2c([nH]c1=O)-c1ccc(N3CC4CCCNC4C3)cc1NCC2` (stereo not drawn) [Cpd 98, 9-(hexahydro-1H-pyrrolo[3,4-b]pyridin-6(2H)-yl)-4-hydroxy-2-oxo-2,5,6,7-tetrahydro-1H-benzo[b]pyrido[2,3-d]azepine-3-carboxylic acid hydrochloride] the same measures were 12.5 to 150 µg/mL, 12.5 to 150 µg/mL and 12.5 to 150 µg/mL.
Take `O=C(O)c1c(O)c2c([nH]c1=O)-c1ccc(N3C[C@@H]4[C@H](C3)[C@H]4N(Cc3ccccc3)Cc3ccccc3)cc1OCC2` [Cpd 79, 9-((cis,cis)-6-(dibenzylamino)-3-azabicyclo[3.1.0]hexan-3-yl)-4-hydroxy-2-oxo-1,2,5,6-tetrahydrobenzo[2,3]oxepino[4,5-b]pyridine-3-carboxylic acid trifluoroacetate]: the MIC in test [1], in test [2] and in test [3] was 12.5 to 150 µg/mL each time.
In the case of `N[C@@H]1[C@H]2CN(c3ccc4c(c3)OCCc3c-4[nH]c(=O)c(C(=O)O)c3O)C[C@@H]12` [Cpd 80, 9-((cis,cis)-6-amino-3-azabicyclo[3.1.0]hexan-3-yl)-4-hydroxy-2-oxo-1,2,5,6-tetrahydrobenzo[2,3]oxepino[4,5-b]pyridine-3-carboxylic acid hydrochloride], the MIC in test [1] (setting [4]) is less than 1 µg/mL; in test [2] it was 12.5 to 150 µg/mL; in test [3] it was 1 to 3.5 µg/mL.
Taken in the same sequence, the figures for `Cl.Cl.Cn1c(CN2CCC(N)CC2)cc2cc3c(cc21)CCCc1c-3[nH]c(=O)c(C(=O)O)c1O` [Cpd 29, 10-((4-aminopiperidin-1-yl)methyl)-4-hydroxy-9-methyl-2-oxo-1,2,5,6,7,9-hexahydropyrido[3′,2′:6,7]cyclohepta[1,2-f]indole-3-carboxylic acid dihydrochloride] were less than 1 µg/mL, 12.5 to 150 µg/mL and 1 to 3.5 µg/mL.
Taken in the same sequence, the figures for `CC1CCc2c([nH]c(=O)c(C(=O)O)c2O)-c2cc3cc(CNC(C)(C)C)n(C)c3cc21.Cl` (stereo not drawn) [Cpd 65, 10-((tert-butylamino)methyl)-4-hydroxy-7,9-dimethyl-2-oxo-1,2,5,6,7,9-hexahydropyrido[3′,2′:6,7]cyclohepta[1,2-f]indole-3-carboxylic acid hydrochloride] were 1 to 3.5 µg/mL, 3.5 to 12.5 µg/mL and 3.5 to 12.5 µg/mL.
For `Cl.Cn1c(CN2CCC(O)CC2)cc2cc3c(cc21)CCCc1c-3[nH]c(=O)c(C(=O)O)c1O` [Cpd 28, 4-hydroxy-10-((4-hydroxypiperidin-1-yl)methyl)-9-methyl-2-oxo-1,2,5,6,7,9-hexahydropyrido[3′,2′:6,7]cyclohepta[1,2-f]indole-3-carboxylic acid hydrochloride] the same measures were less than 1 µg/mL, 3.5 to 12.5 µg/mL and 1 to 3.5 µg/mL.
Turning to `O=C(O)c1c(O)c2c([nH]c1=O)-c1ccc(N[C@@H]3CC[C@H]4CNC[C@H]43)cc1OCC2` [Cpd 166, 4-hydroxy-9-(((cis)-octahydrocyclopenta[c]pyrrol-4-yl)-(cis)-amino)-2-oxo-1,2,5,6-tetrahydrobenzo[2,3]oxepino[4,5-b]pyridine-3-carboxylic acid hydrochloride], the MIC in test [1] (setting [4]), in test [2] and in test [3] was 12.5 to 150 µg/mL each time.
With `Cl.O=C(O)c1c(O)c2c([nH]c1=O)-c1ccc(N3CCC4(CNC4)C3)cc1CCC2` [Cpd 121, 4-hydroxy-2-oxo-9-(2,6-diazaspiro[3.4]octan-6-yl)-2,5,6,7-tetrahydro-1H-benzo[6,7]cyclohepta[1,2-b]pyridine-3-carboxylic acid hydrochloride], the MIC in test [1] (setting [4]) was 3.5 to 12.5 µg/mL; in test [2], 12.5 to 150 µg/mL; in test [3], 12.5 to 150 µg/mL.
Turning to `CCNCc1cc2cc3c(cc2n1C)CCCCc1c-3[nH]c(=O)c(C(=O)O)c1O.Cl` [Cpd 59, 11-((ethylamino)methyl)-4-hydroxy-10-methyl-2-oxo-2,5,6,7,8,10-hexahydro-1H-pyrido[3′,2′:7,8]cycloocta[1,2-f]indole-3-carboxylic acid hydrochloride], the results for the MIC in test [1] (setting [4]), in test [2] and in test [3] were less than 1 µg/mL, 3.5 to 12.5 µg/mL and less than 1 µg/mL, respectively.
On to `CN1CCN(Cc2cc3cc4c(cc3n2C)CCCc2c-4[nH]c(=O)c(C(=O)O)c2O)CC1.Cl.Cl` [Cpd 42, 4-hydroxy-9-methyl-10-((4-methylpiperazin-1-yl)methyl)-2-oxo-1,2,5,6,7,9-hexahydropyrido[3′,2′:6,7]cyclohepta[1,2-f]indole-3-carboxylic acid dihydrochloride], for which the figures for the MIC in test [1] (setting [4]), in test [2] and in test [3] were less than 1 µg/mL, 3.5 to 12.5 µg/mL and 3.5 to 12.5 µg/mL, respectively.
As for `Cl.Cn1c(CNCC2CCCO2)cc2cc3c(cc21)CCCc1c-3[nH]c(=O)c(C(=O)O)c1O` (stereo not drawn) [Cpd 161, 4-hydroxy-9-methyl-2-oxo-10-((((tetrahydrofuran-2-yl)methyl)amino)methyl)-1,2,5,6,7,9-hexahydropyrido[3′,2′:6,7]cyclohepta[1,2-f]indole-3-carboxylic acid hydrochloride], the MIC was less than 1 µg/mL in test [1] (setting [4]), 12.5 to 150 µg/mL in test [2] and 1 to 3.5 µg/mL in test [3].
Turning to `Cl.O=C(O)c1c(O)c2c([nH]c1=O)-c1ccc(NC3CCNCC3)cc1CCC2` [Cpd 118, 4-hydroxy-2-oxo-9-(piperidin-4-ylamino)-2,5,6,7-tetrahydro-1H-benzo[6,7]cyclohepta[1,2-b]pyridine-3-carboxylic acid hydrochloride], the MIC in test [1] (setting [4]), in test [2] and in test [3] was 12.5 to 150 µg/mL throughout.
Turning to `Cl.O=C(O)c1c(O)c2c([nH]c1=O)-c1ccc(N3C[C@H]4CCCN[C@H]4C3)cc1CCC2` [Cpd 114, 9-((4aR,7aR)-hexahydro-1H-pyrrolo[3,4-b]pyridin-6(2H)-yl)-4-hydroxy-2-oxo-2,5,6,7-tetrahydro-1H-benzo[6,7]cyclohepta[1,2-b]pyridine-3-carboxylic acid hydrochloride], the MIC in test [1] (setting [4]) lay in the range of 1 to 3.5 µg/mL; in test [2], 12.5 to 150 µg/mL; in test [3] it was 3.5 to 12.5 µg/mL.
Turning to `CN(C)c1ccc2c(c1)CCCCc1cc(C(=O)O)c(=O)[nH]c1-2` [Cpd 4, 10-(dimethylamino)-2-oxo-1,2,5,6,7,8-hexahydrobenzo[7,8]cycloocta[1,2-b]pyridine-3-carboxylic acid], the MIC in test [1] (setting [4]) is less than 1 µg/mL; in test [2] it was 12.5 to 150 µg/mL (≈ 40 to 480 µM); in test [3], 12.5 to 150 µg/mL (≈ 40 to 480 µM).
`Cl.Cn1c(CNC2CCC2)cc2cc3c(cc21)OCCc1c-3[nH]c(=O)c(C(=O)O)c1O` [Cpd 172, 10-((cyclobutylamino)methyl)-4-hydroxy-9-methyl-2-oxo-2,5,6,9-tetrahydro-1H-pyrido[2′,3′:4,5]oxepino[3,2-f]indole-3-carboxylic acid hydrochloride]: the results for the MIC in test [1] (setting [4]), in test [2] and in test [3] were less than 1 µg/mL, 3.5 to 12.5 µg/mL and less than 1 µg/mL, respectively.
For `CCNCc1cc2cc3c(cc2n1C)NCCCc1c-3[nH]c(=O)c(C(=O)O)c1O.Cl` [Cpd 104, 11-((ethylamino)methyl)-4-hydroxy-10-methyl-2-oxo-2,5,6,7,8,10-hexahydro-1H-pyrido[2′,3′:4,5]azocino[3,2-f]indole-3-carboxylic acid hydrochloride], the figures for the minimum inhibitory concentration (MIC) in test [1] (setting [4]), in test [2] and in test [3] were 1 to 3.5 µg/mL, 12.5 to 150 µg/mL and 3.5 to 12.5 µg/mL, respectively.
